Structures are written as SMILES. pIC50: −log10 of the molar value. Several values for one entry are separate records, joined by “and”; a condition that tells them apart may be missing. Equal entries are not always repeated.

Data set [1] deals with T1, Grb2-Shc binding (GST-Grb2 fusion protein, [3H]propionylated-hShc peptide) (Homo sapiens, UniProt P62993).
T1 construct: purchased Santa Cruz Biotech Inc
Kind of data set: Grb2-Shc binding inhibition, scintillation proximity assay. The settings on record: SPA, competition with [3H]propionylated-hShc peptide for GST-Grb2, room temperature 30 minutes, pH 7.4; read-out: concentration required for inhibiting the Grb2-Shc binding by 50% (IC50). On the procedure: The activity of the inventive compound in inhibiting Grb2-Shc binding was determined in accordance with the scintillation proximity assay method by way of measuring the extents of competitive bindings of [^3H]propionylated-hShc peptide and the inventive compound toward Grb2.
Added to a 1.5 ml eppendorf tube were 10 μl of 0.3 μg GST-Grb2 fusion protein(Santa Cruz Biotech Inc.), 10 μl of SPA PVT antibody-binding beads(Amersham Co.), 10 μl of 0.1 μ Ci [^3H]propionylated-hShc peptide(Amersham Co.), 10 μl of 6 μg anti-GST rabbit IgG(Molecular Probes) and 10 μl of a DMSO solution containing each of the compounds obtained in Example 2 and the total volume was adjusted to 200 μl using SH2 buffer solution(20 mM Tris-HCI, 250 mM NaCl and 0.1% cow serum albumin, pH 7.4). The resulting mixture(sample) was reacted at room temperature for 30 minutes. After the completion of the reaction, the Grb2-Shc binding inhibiting activity was determined by examining the extent of comparative binding of [^3H]propionylated-hShc peptides toward Grb2 proteins, expressed by a unit of count per minute(CPM), with a liquid scintillation counter. The same procedure was repeated in the absence of GST-Grb2(blank) or in the absence of any added compounds(control).
The Grb2-Shc binding inhibiting activity was then calculated in accordance with the following equation: [formula]
Background: In a scintillation proximity assay essentially only radioactivity close to the scintillant gives light.

Data set [2] can be described thus: Solubility in solvents (physicochemical characteristics, Table 1). From the text:
Based on the above-mentioned spectral data and physicochemical characteristics shown in Table 1, the structures of Compounds(I), (II) and (III) was unequivocally settled. Compounds(II) and (III) are sclerotiorine and isochromopilone, respectively, which are known compounds, while Compound(I) is a novel compound.

Another data set has as its system phospholipase A2. Conditions: reported in the literature; cited from earlier work.

T1 sequence (P62993 whole entry, the tested form may be a part): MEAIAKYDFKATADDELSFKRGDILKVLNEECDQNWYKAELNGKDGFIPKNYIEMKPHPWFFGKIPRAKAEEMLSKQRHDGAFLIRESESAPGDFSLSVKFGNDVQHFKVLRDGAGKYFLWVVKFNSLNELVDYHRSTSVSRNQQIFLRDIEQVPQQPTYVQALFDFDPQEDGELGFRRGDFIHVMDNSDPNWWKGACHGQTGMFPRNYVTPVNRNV

Regarding `CCC(C)/C=C(C)/C=C/c1cc2c(cn1)=C(OC)[C@@](C)(OC(C)=O)C(=O)C=2Cl` (stereo partly shown) [Compound(I)], in data set [1], the pIC50 is ~5.22 and 5.22. The Insoluble entry in data set [2] is given as “H2O”.
Turning to `CCC(C)/C=C(C)/C=C/C1=CC2=C(Cl)C(=O)[C@](C)(OC(C)=O)C(=O)C2=CO1` (stereo partly shown) [Compound(II), sclerotiorine], in data set [1], the pIC50 is ~4.92 and 4.92. Moreover, the Insoluble entry in data set [2] is “H2O”. Moreover, the “phospholipase A2 inhibiting activity” value in the data set with phospholipase A2 is “phospholipase A2 inhibiting activity”.
For the compound `CCC(C)/C=C(C)/C=C/C1=CC2=C(Cl)C(=O)[C@](C)(O)C(OC(C)=O)C2CO1` (stereo partly shown) [Compound(III), isochromopilone IV], in data set [1], the pIC50 is ~4.96 and 4.96. Further, the Soluble entry in data set [2] (solvents in which the compound is soluble) was “CHCl3, EtOAc, and MeOH”.
